Here are results for nine molecules from patent US11866439B2, “Ion channel modulators” (Praxis Precision Medicines, Inc., priority 2018, dated 2024).

What all share (type): cell-based
For one experiment, the target named is T1, hNaV1.1-WT (Homo sapiens, UniProt P35498).
T1 construct: expressed in transfected cells; host or cells: HEK-293
Kind of experiment: Voltage step activated (peak) sodium current, PatchXpress, hNaV1.1-WT. The settings on record: HEK293, HEK-293, steps to 0 mV from half-inactivation holding potential, read-out: hNav1.1 Peak INa (percent inhibition). On the procedure: (§1) Functional characterization of exemplary compounds to modulate INa expressed by various human isoforms and disease-causing mutant voltage-gated sodium channels was accomplished using the PatchXpress high throughput electrophysiology platform (Molecular Devices, Sunnyvale, CA). HEK-293 cells expressing a recombinant, human NaV1.X sodium channel (either hNaV1.6-WT, hNaV1.6-R223G, hNaV1.6-N984K, hNaV1.6-N1768D, hNaV1.1-WT, hNaV1.2-WT, hNaV1.5-WT, hNaV1.7-WT, or hNaV1.8-WT) were grown in DMEM/high-glucose Dulbecco's modified, 10% FBS, 2 mM sodium pyruvate, 10 mM HEPES and 400 μg/mL G418. Cells were grown to 50%-80% confluency prior to harvesting. Trypsinized cells were washed, allowed to recover for 1 hour and then resuspended in extracellular recording solution at a concentration of 1×10^6 cells/ml. The onboard liquid handling facility of the PatchXpress was used for dispensing cells and applying test compounds. INa amplitude and stability were determined by analyzing the peak current amplitude.
(§2) Peak INa was evoked by depolarizing steps to 0 mV for 20 ms from a holding potential which evoked half-inactivation (e.g., −60 mV) at a frequency of 0.1 Hz. The voltage of half-inactivation was determined for each cell using a 5 sec prepulse to membrane potentials between −120 mV and −20 mV followed immediately by a voltage step to a fully activating membrane voltage (e.g., 0 mV). Following steady state block with exemplary compounds (e.g., as described herein), the degree of inhibition was measured using the average of three consecutive voltage steps. Percent steady-state inhibition of INa was calculated as: [(INa_compound)/(INa_control)]*100, where INa_compound and INa_control represent INa recorded in the presence or absence of compound, respectively.
(§3) In this table, “A” indicates inhibition between less than 0% to 50% and “B” indicates inhibition of greater than 50% and N/A indicates the compound was not tested.

The target in another experiment is T2, hNaV1.2-WT (Homo sapiens, UniProt Q99250).
T2 construct: expressed in transfected cells; host or cells: HEK-293
T2 sequence (Q99250 whole entry): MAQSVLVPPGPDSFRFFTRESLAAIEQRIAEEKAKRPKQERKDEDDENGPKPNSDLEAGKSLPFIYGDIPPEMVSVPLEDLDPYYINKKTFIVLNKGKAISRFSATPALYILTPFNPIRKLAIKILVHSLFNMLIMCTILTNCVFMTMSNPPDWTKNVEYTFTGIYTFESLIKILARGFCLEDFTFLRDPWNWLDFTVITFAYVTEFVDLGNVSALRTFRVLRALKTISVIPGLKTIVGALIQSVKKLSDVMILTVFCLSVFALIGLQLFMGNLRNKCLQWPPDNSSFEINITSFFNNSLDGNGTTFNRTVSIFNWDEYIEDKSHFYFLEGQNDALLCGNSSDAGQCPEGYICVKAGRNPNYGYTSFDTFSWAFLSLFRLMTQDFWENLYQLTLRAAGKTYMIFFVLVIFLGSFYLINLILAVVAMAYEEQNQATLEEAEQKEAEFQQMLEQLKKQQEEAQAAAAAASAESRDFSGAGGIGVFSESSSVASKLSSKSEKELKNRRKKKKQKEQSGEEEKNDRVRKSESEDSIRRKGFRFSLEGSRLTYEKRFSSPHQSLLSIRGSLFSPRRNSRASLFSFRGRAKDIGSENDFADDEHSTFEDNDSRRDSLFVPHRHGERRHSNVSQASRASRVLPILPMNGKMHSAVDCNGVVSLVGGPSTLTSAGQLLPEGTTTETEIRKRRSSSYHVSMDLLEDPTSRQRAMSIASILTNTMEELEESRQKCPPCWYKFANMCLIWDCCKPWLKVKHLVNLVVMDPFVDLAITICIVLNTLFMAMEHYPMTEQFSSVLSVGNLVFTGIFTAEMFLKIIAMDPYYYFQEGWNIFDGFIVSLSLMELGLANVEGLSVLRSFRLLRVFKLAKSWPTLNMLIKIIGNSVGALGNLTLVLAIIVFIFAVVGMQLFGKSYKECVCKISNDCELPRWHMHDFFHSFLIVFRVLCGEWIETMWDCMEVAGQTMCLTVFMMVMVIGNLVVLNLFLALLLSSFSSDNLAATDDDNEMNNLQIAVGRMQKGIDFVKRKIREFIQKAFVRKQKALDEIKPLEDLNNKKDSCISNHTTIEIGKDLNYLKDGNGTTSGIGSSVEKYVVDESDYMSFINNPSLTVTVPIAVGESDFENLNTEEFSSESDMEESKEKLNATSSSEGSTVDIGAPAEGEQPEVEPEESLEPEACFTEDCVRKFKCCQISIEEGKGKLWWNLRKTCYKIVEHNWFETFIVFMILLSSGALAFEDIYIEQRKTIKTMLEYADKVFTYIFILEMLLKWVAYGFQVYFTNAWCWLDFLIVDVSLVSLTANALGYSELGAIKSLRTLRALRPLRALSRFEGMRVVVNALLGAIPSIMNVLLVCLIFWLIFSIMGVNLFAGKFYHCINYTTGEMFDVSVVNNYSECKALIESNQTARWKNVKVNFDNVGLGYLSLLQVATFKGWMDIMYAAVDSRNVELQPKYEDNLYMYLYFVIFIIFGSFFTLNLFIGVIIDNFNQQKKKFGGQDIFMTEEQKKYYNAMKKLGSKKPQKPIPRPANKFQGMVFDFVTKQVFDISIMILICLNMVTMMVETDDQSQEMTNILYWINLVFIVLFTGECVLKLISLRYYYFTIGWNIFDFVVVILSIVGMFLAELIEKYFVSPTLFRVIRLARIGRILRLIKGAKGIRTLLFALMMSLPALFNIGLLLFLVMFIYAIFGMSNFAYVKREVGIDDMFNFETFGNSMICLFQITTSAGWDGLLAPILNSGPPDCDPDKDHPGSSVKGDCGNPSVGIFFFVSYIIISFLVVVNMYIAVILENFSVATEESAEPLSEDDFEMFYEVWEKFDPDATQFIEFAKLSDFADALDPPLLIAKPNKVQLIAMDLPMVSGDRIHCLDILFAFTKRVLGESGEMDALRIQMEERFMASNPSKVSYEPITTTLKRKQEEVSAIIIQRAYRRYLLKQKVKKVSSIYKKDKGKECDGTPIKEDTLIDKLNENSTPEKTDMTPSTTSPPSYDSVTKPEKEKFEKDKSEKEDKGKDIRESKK
Kind of experiment: Voltage step activated (peak) sodium current, PatchXpress, hNaV1.2-WT. The settings on record: HEK293, HEK-293, steps to 0 mV from half-inactivation holding potential, read-out: hNav1.2 Peak INa (percent inhibition). The procedure: as §1, §2, §3

The next experiment addresses T3, human NaV1.6 (hNaV1.6) (Homo sapiens, UniProt Q9UQD0).
T3 construct: expressed in transfected cells; host or cells: HEK-293
Kind of experiment: Late sodium current (INaL) inhibition, PatchXpress electrophysiology, hNaV1.6. The settings on record: 1 μM; HEK-293 cells expressing hNaV1.6; late current evoked by 300 nM ATX-II. The procedure: HEK-293 cells expressing recombinant, human NaV1.6 (hNaV1.6) were grown in DMEM/high-glucose Dulbecco's modified, 10% FBS, 2 mM sodium pyruvate, 10 mM HEPES and 400 μg/mL G418. Cells were grown to 50%-80% confluency prior to harvesting. […] The onboard liquid handling facility of the PatchXpress was used for dispensing cells and applying test compounds. […] INaL was evoked by depolarizing pulses to 0 mV for 200 ms from a non-inactivating holding potential (e.g., −120 mV) at a frequency of 0.1 Hz. INaL amplitude and stability were determined by analyzing the mean current amplitude over the final 20 ms of the test pulse. […] Percent steady-state inhibition of INaL was calculated as: [(INaL_compound)/(INaL_control)]*100, where INaL_compound and INaL_control represent INaL recorded in the presence or absence of compound, respectively.

The structures appear in SMILES notation. Where only a bound is given, the exact number is not on record here.

T3 sequence (Q9UQD0 whole entry): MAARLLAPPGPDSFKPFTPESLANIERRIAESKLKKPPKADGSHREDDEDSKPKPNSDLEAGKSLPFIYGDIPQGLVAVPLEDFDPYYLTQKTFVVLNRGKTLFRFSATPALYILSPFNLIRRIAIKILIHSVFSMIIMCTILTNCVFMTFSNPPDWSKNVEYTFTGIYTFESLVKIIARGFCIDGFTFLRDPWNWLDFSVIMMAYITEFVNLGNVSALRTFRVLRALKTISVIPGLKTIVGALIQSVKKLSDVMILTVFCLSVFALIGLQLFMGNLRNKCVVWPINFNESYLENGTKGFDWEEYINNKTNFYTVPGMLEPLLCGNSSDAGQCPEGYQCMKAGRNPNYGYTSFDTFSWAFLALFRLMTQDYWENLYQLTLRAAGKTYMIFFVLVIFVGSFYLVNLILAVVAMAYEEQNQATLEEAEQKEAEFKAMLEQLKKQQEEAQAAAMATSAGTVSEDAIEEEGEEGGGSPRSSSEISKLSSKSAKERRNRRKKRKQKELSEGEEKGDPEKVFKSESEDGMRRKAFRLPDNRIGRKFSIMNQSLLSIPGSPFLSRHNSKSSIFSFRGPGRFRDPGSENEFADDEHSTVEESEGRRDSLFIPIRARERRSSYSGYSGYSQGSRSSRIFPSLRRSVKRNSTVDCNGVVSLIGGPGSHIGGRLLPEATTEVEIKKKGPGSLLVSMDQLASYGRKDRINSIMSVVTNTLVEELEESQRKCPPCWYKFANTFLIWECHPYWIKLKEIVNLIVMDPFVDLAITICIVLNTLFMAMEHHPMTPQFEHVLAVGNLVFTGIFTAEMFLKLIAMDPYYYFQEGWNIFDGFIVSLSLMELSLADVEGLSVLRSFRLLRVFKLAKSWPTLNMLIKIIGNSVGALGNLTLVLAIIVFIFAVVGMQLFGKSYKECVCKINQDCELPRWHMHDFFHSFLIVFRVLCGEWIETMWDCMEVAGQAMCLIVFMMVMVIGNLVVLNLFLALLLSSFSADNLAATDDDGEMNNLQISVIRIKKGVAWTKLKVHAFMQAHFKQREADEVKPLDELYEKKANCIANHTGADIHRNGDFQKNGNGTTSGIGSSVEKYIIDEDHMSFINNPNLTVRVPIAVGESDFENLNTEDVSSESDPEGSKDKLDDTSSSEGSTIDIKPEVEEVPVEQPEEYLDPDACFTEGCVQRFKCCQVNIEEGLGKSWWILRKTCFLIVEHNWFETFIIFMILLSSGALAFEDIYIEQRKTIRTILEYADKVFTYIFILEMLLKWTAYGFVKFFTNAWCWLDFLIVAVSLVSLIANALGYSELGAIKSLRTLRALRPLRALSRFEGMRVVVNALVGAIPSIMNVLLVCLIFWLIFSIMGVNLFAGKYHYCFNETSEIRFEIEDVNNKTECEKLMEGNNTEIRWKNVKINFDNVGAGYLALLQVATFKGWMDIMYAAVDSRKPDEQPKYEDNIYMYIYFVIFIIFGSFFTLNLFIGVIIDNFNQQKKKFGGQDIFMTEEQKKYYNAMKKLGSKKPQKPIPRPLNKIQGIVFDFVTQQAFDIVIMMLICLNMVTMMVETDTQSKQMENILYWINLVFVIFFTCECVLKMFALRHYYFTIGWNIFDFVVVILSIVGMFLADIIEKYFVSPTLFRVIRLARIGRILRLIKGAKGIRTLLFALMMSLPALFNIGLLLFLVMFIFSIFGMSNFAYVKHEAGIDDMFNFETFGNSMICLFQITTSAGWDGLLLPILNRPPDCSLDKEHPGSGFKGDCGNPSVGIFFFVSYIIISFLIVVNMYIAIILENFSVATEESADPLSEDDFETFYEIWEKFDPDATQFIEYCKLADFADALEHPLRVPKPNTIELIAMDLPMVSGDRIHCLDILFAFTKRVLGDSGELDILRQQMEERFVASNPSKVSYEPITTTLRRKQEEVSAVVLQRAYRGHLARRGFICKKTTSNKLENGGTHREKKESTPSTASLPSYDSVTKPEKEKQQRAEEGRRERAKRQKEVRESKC

Regarding `COC(F)(F)c1nnc2cnc(-c3cnc(OCC(F)(F)F)c(F)c3)cn12` [Compound 53, 3-[difluoro(methoxy)methyl]-6-[5-fluoro-6-(2,2,2-trifluoroethoxy)-3-pyridyl]-[1,2,4]triazolo[4,3-a]pyrazine], the inhibition (usually the percentage by which the read-out fell short of the control) at 1 µM on hNaV1.1-WT is greater than 50%; on hNaV1.2-WT it was less than 50%.
Regarding `COC(F)(F)c1nnc2cnc(-c3cnc(OC4(C(F)(F)F)CCC4)c(F)c3)cn12` [Compound 11, 3-[difluoro(methoxy)methyl]-6-[5-fluoro-6-[1-(trifluoromethyl)cyclobutoxy]-3-pyridyl]-[1,2,4]triazolo[4,3-a]pyrazine], at hNaV1.1-WT, the inhibition at 1 µM was greater than 50%.
Turning to `COC(F)(F)c1nnc2cnc(-c3cnc(O[C@@H](C)C(F)(F)F)c(F)c3)cn12` [Compound 6B, 3-[difluoro(methoxy)methyl]-6-[5-fluoro-6-[(1S)-2,2,2-trifluoro-1-methyl-ethoxy]-3-pyridyl]-[1,2,4]triazolo[4,3-a]pyrazine], the inhibition at 1 µM at hNaV1.1-WT and on hNaV1.2-WT was greater than 50% throughout.
Regarding `COC(F)(F)c1nnc2cnc(-c3ccc(OC(C)(C)C(F)(F)F)nc3)cn12` [Compound 56, 3-[difluoro(methoxy)methyl]-6-[6-(2,2,2-trifluoro-1,1-dimethyl-ethoxy)-3-pyridyl]-[1,2,4]triazolo[4,3-a]pyrazine], the inhibition at 1 µM on hNaV1.1-WT and at hNaV1.2-WT was greater than 50% each time.
Consider `COC(F)(F)c1nnc2cnc(-c3ccc(OC4(C(F)(F)F)CCC4)nc3)cn12` [Compound 57], for which, at human NaV1.6 (hNaV1.6), the “NaV 1.6 Assay Data (percent inhibition of INaL at hNaV1.6)” value was “C (“C” indicates inhibition of greater than 70%)”.
With `COC(F)(F)c1nnc2cnc(-c3ccc(O[C@@H](C)C(F)(F)F)nc3)cn12` [Compound 59, 3-[difluoro(methoxy)methyl]-6-[6-[(1S)-2,2,2-trifluoro-1-methyl-ethoxy]-3-pyridyl]-[1,2,4]triazolo[4,3-a]pyrazine], the inhibition at 1 µM at hNaV1.1-WT and on hNaV1.2-WT was greater than 50% in each case.
As for `CCOC(F)(F)c1nnc2ccc(-c3cnc(OCC(F)(F)F)c(F)c3)cn12` [Compound 3, 3-[ethoxy(difluoro)methyl]-6-[5-fluoro-6-(2,2,2-trifluoroethoxy)-3-pyridyl]-[1,2,4]triazolo[4,3-a]pyridine], the inhibition at 1 µM on hNaV1.1-WT is greater than 50%.
For the molecule `COC(F)(F)c1nnc2cnc(-c3ccc(O[C@H](C)C(F)(F)F)nc3)cn12` [Compound 62, 3-[difluoro(methoxy)methyl]-6-[6-[(1R)-2,2,2-trifluoro-1-methyl-ethoxy]-3-pyridyl]-[1,2,4]triazolo[4,3-a]pyrazine], the inhibition at 1 µM at hNaV1.1-WT and on hNaV1.2-WT was greater than 50% each time.
Turning to `CCOC(F)(F)c1nnc2cnc(-c3cnc(OCC(F)(F)F)c(F)c3)cn12` [Compound 10], the inhibition at 1 µM at hNaV1.1-WT was greater than 50%; at hNaV1.2-WT, less than 50%.
